From patent US20060003951A1, “Anti-viral 7-deaza L-nucleosides” (Micrologix Biotech Inc., priority 2001, published 2006)

Molecule Nc1ncnc2c1ccn2[C@@H]1C[C@@H](O)[C@H](CO)O1 has a melting point of 214.8 to 215.5 °C.
